Assay results published in patent US20150198584A1, “IDENTIFICATION OF […] STATES” ([…] AG, priority 2014, published 2015).
Entries after “also recorded” stand apart in the source; their conditions may differ.

Assays:
[1] = tested on: human peripheral blood monocytes; test: Kinetics of signal transduction responses to LPS in whole blood monocytes, flow cytometry of fixed and permeabilized cells; assay type: cell-based; conditions: LPS in the presence of the inhibitor, compared to LPS alone
HL-60 cells = test: Mitochondrial membrane potential (MMP) with JC-9, red and green fluorescence, flow cytometry; assay type: cell-based, human
Description: Cells were deposited into 384 well plates (1×10^6 cells in 40 μl tissue culture media) and serial dilutions of test compounds (or vehicle in the case of controls) were deposited in individual wells using standard robotic techniques. Compound deposition and dilution was performed by BIOMEK FX (5 or 10 step dilutions from 100 to 0.005 μM). Dilutions were prepared from stock solutions of compounds dissolved initially in 100% DMSO. Final volume deposited into each well is 2 μl of each compound dilution (compounds are in a final concentration of 1% DMSO). After incubation in a tissue culture incubator (5% CO2 at 37° C.) for varying periods of time (typically 4 hours), plates were centrifuged at room temperature, followed by removal of 20 μl supernatant fluid, After vibration of the plate to re-suspend cells, a dye mix (Plate in Monobromobimane, CALCEIN AM, MITOSOX™ and SYTOSOX™ RED; plate 1b VYBRANVIOLET™ Live Cell Cycle dye, JC-9, and SYTOSOX™ RED) was added in a total volume of 20 μl, followed by an additional mixing step. Plates were returned to the tissue culture incubator (5% CO2 at 37° C.) for an additional 15 min (plate 1a) or 30 min (plate 1b), followed by immediate analysis using the […]-CYAN™.
Each well of the 384 wellplate was sampled with a 6 second sip time, plus 1 second delay between wells, resulting in a total read time for each plate of approximately 45 minutes. Data was acquired using a CYAN™ flow cytometer, with the […]™ software used to compile files for each well on an individual plate using an FCS format. Data for each plate was subsequently analyzed for several quality assurance parameters (total number of events per well, numbers of events associated with morphologically normal events, number of dead cells), as described below.
Measurements identical to those described in Example 2 above were made using a second combination of dyes:
(2) JC-9 to measure mitochondrial membrane potential (MMP); and
The measurement of mitochondrial membrane potential (MMP) with JC-9 was performed with two independent fluorescence channels (green and red fluorescence signals), as changes in MMP cause aggregation of the dye, with different fluorescence emission by the aggregated versus non-aggregated dye molecules. […] At higher valinomycin concentrations, red fluorescence […]. A unique aspect of this assay is that it correlates changes in MMP (JC-9) and cell death (SYTOXRED™) with the phases of the cell cycle (G1, S, and G2M).

HL-60 cell line = test: Cell physiology assay plate 1a (MBBR, CALCEIN AM, MITOSOX RED, SYTOXRED, light scatter) by flow cytometry; assay type: cell-based, human
Description: Cells were deposited into 384 well plates (1×10^6 cells in 40 μl tissue culture media) and serial dilutions of test compounds (or vehicle in the case of controls) were deposited in individual wells using standard robotic techniques. Compound deposition and dilution was performed by BIOMEK FX (5 or 10 step dilutions from 100 to 0.005 μM). Dilutions were prepared from stock solutions of compounds dissolved initially in 100% DMSO. Final volume deposited into each well is 2 μl of each compound dilution (compounds are in a final concentration of 1% DMSO). After incubation in a tissue culture incubator (5% CO2 at 37° C.) for varying periods of time (typically 4 hours), plates were centrifuged at room temperature, followed by removal of 20 μl supernatant fluid, After vibration of the plate to re-suspend cells, a dye mix (Plate in Monobromobimane, CALCEIN AM, MITOSOX™ and SYTOSOX™ RED; plate 1b VYBRANVIOLET™ Live Cell Cycle dye, JC-9, and SYTOSOX™ RED) was added in a total volume of 20 μl, followed by an additional mixing step.
Data was acquired using a CYAN™ flow cytometer, with the […]™ software used to compile files for each well on an individual plate using an FCS format. Data for each plate was subsequently analyzed for several quality assurance parameters (total number of events per well, numbers of events associated with morphologically normal events, number of dead cells), as described below.
Flow cytometric analyses of intrinsic cell properties (forward light scatter and light scattered orthogonal to the laser beam) and fluorescence signals derived from the dyes listed in Table 1 was carried out for plates 1a and 1b.
MITOSOX™ RED is a compound that can diffuse into viable cells and reacts with superoxide anion species, particularly products of mitochondrial respiration; conditions such as cell stress can cause mitochondria to respond (sometimes rapidly) by increasing respiration and/or release superoxide anions; and
(3) SYTOXRED™ to measure cell viability (loss of nuclear membrane integrity). SYTOXRED™ is a high-affinity DNA stain that can only pass through the cytoplasmic and nuclear membranes of cells which have lost the integrity of both membranes; thus, brightly fluorescent cells are dead.

K562 cells = test: Cell cycle measured by DNA content in K562 cells; assay type: cell-based, human; conditions: 30 min exposure, listed as imatinib
Description: Cells were deposited onto dilutions of test compounds deposited into individual wells of 96 well plates, as indicated above. […] Following 15 min incubation (at 37° C.?), cells were pelleted by centrifugation, supernatant removed, and the cells were suspended by vibrating the plate.
Cell were permeabilized by adding 150 μl cold absolute methanol, followed by incubation at 4° C. for 15 minutes. Permeabilized cells were centrifuged, supernatant removed, and cells were washed three times with cold (4° C.) PBS containing 4% FBS. Following the final wash, cells were centrifuged, the supernatant was removed, and cells were re-suspended in an antibody cocktail (total volume 20 μl) appropriate for that experiment.

[2] = HL-60 cells, concentration series
[3] = HL-60 cells, increasing concentration
[4] = 33 μM, population with altered morphology, compared to cells with normal morphology
[5] = 33 μM, population with normal morphology

Compound: CS(=O)(=O)N1CCN(Cc2cc3nc(-c4cccc5[nH]ncc45)nc(N4CCOCC4)c3s2)CC1 [GDC0941]
- kinetics of ERK phosphorylation [1]: delayed

Compound: CC(C)[C@@H]1NC(=O)[C@H](C)OC(=O)[C@@H](C(C)C)NC(=O)[C@@H](C(C)C)OC(=O)[C@H](C(C)C)NC(=O)[C@H](C)OC(=O)[C@@H](C(C)C)NC(=O)[C@@H](C(C)C)OC(=O)[C@H](C(C)C)NC(=O)[C@H](C)OC(=O)[C@@H](C(C)C)NC(=O)[C@@H](C(C)C)OC1=O [valinomycin]
- concentration at which red and green JC-9 fluorescence peak (HL-60 cells; [2]): ~0.045 µM
- concentration of peak green JC-9 fluorescence (HL-60 cells; [2]): ~0.05 µM
- JC-9 green fluorescence (HL-60 cells; [3]): significantly higher; also recorded: initially increase
- JC-9 red fluorescence (HL-60 cells; [3]): significantly higher; also recorded: initially increase
- JC-9 red/green fluorescence ratio (HL-60 cells; at higher concentrations (above green peak)): increasing

Compound: CNCCC(Oc1ccc(C(F)(F)F)cc1)c1ccccc1 (stereo not shown) [fluoxetine]
- cells that have lost "normal morphology" (HL-60 cell line; 100 μM): Approximately 30%
- GSH (MBBR) (HL-60 cell line; 100 μM, affected cells): reduced
- ROS (MITOSOX RED) (HL-60 cell line; 100 μM, affected cells): increased

Compound: Cc1ccc(NC(=O)c2ccc(CN3CCN(C)CC3)cc2)cc1Nc1nccc(-c2cccnc2)n1 [GLEEVEC™]
- change in the cell cycle, as measured by DNA content (K562 cells): no concomitant change

Compound: CC(=O)[C@]1(O)Cc2c(O)c3c(c(O)c2[C@@H](O[C@H]2C[C@H](N)[C@H](O)[C@H](C)O2)C1)C(=O)c1ccccc1C3=O [idarubicin]
- JC-9 red fluorescence versus untreated control cells (HL-60 cells; HL60 cells, 1.23 μM): significantly higher
- concentration at which red fluorescence of JC-9 begins to increase significantly (HL-60 cells; HL60 cells, concentration series): 1.23 µM
- JC-9 green fluorescence (HL-60 cells; [3]): does not increase

Compound: CO/C(=C/C(N)=O)[C@H](C)[C@H](/C=C/c1csc(-c2csc([C@@H](C)/C=C/C=C/C(C)C)n2)n1)OC [myxothiazol]
- CALCEIN AM (cytoplasmic membrane permeability) (HL-60 cell line; 100 μM, affected cells): decrease
- GSH (MBBR) (HL-60 cell line; 100 μM, affected cells): decrease
- ROS (MITOSOX RED) (HL-60 cell line; 100 μM, affected cells): increase
- SYTOXRED (cytoplasmic and nuclear membrane permeability, viability) (HL-60 cell line; 100 μM, affected cells): increase
- cell morphology (light scatter) (HL-60 cell line; 100 μM, affected cells): significant change
- SYTOXRED (cytoplasmic and nuclear membrane permeability, viability) (HL-60 cell line; 100 μM, affected cells, listed as myxothiozol): perturbs

Compound: N#CC(C#N)=NNc1ccc(OC(F)(F)F)cc1 [FCCP, carbonyl cyanide-4-(trifluoromethoxy)phenylhydrazone]
- CALCEIN (HL-60 cell line; [4]): increased
- GSH (HL-60 cell line; [4]): reduced
- ROS (HL-60 cell line; [4]): increased
- SYTOXRED (HL-60 cell line; [4]): higher
- CALCEIN AM level (HL-60 cell line; [5]): normal
- GSH level (HL-60 cell line; [5]): normal
- ROS (indicator of mitochondrial stress) (HL-60 cell line; [5]): increased
- nuclear and cytoplasmic membranes (SYTOX Red uptake) (HL-60 cell line; [5]): intact
- cell morphology (HL-60 cell line; 33 μM, second distinct population (light blue)): altered
